Assay results: US20200024278A1, “COMPOSITION COMPRISING ANTIBIOTIC COMPOUND AND AN HETEROCYCLIC COMPOUND AND THEIR USE IN PREVENTING OR TREATING BACTERIAL INFECTIONS” (MUTABILIS, priority 2016, published 2020)

Experiments:
ABA UFR152 = assay: MIC, broth microdilution (CLSI), substance alone or ATB combined with compound at 4 or 8 μg/mL; format: cell-based, A. baumannii; details: Acinetobacter baumannii, substance alone, read-out: MIC
In short: (§1)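 CLSI broth microdilution in cation-adjusted Mueller-Hinton broth, 5·10^5 CFU/mL log-phase inoculum, 16-20 h at 35 °C in ambient air. Fosfomycin assays supplemented with 25 μg/ml glucose-6-phosphate.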

ABA UFR153 = assay: as above; format: cell-based, A. baumannii; details: Acinetobacter baumannii, substance alone, read-out: MIC
In short: as §1

ABA UFR161 = assay: as above; format: cell-based, A. baumannii; details: Acinetobacter baumannii, substance alone, read-out: MIC
In short: as §1

ABA UFR154 = assay: as above; format: cell-based, A. baumannii; details: Acinetobacter baumannii, substance alone, read-out: MIC
In short: as §1

ABA UFR151 = assay: as above; format: cell-based, A. baumannii; details: Acinetobacter baumannii, substance alone, read-out: MIC
In short: as §1

ABA UFR156 = assay: as above; format: cell-based, A. baumannii; details: Acinetobacter baumannii, substance alone, read-out: MIC
In short: as §1

ABA UFR159 = assay: as above; format: cell-based, A. baumannii; details: Acinetobacter baumannii, substance alone, read-out: MIC
In short: as §1

ABA UFR157 = assay: as above; format: cell-based, A. baumannii; details: Acinetobacter baumannii, substance alone, read-out: MIC
In short: as §1

ABA UFR158 = assay: as above; format: cell-based, A. baumannii; details: Acinetobacter baumannii, substance alone, read-out: MIC
In short: as §1

ABA UFR155 = assay: as above; format: cell-based, A. baumannii; details: Acinetobacter baumannii, substance alone, read-out: MIC
In short: as §1

ABA UFR160 = assay: as above; format: cell-based, A. baumannii; details: Acinetobacter baumannii, substance alone, read-out: MIC
In short: as §1

KPN UFR68 = assay: Fractional Inhibitory Concentration Index, checkerboard assay; format: cell-based, K. pneumoniae
In short: (§2)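 Two-agent checkerboards of 2-fold dilutions in ca-MHB were inoculated at 5.10^5 CFU/mL and incubated 18 h at 35 °C in air, in duplicate; fosfomycin wells also held 25 μg/ml glucose-6-phosphate. FICI calculated as the sum of combination/alone MIC ratios for each drug.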

ECL P99 = assay: as above; format: cell-based, E. cloacae
In short: as §2

ECO 190317 = assay: as above; format: cell-based, E. coli
In short: as §2

PAE UFR48 = assay: as above; format: cell-based, P. aeruginosa
In short: as §2

PAE UFR90 = assay: as above; format: cell-based, P. aeruginosa
In short: as §2

For `NCCON=C1C[C@@H](C(N)=O)N2C[C@@H]1N(OS(=O)(=O)[O-])C2=O.[Na+]` [Example 2, sodium and 2,2,2-trifluoroacetate [(2S,5S)-4-(2-ammonium-ethoxyimino)-2-carbamoyl-7-oxo-1,6-diazabicyclo[3.2.1]octan-6-yl] sulfate], the MIC (ABA UFR152) was greater than 32 µg/mL, the MIC (ABA UFR153) was greater than 32 µg/mL and the MIC (ABA UFR161) was greater than 32 µg/mL. The MIC (ABA UFR154) was greater than 32 µg/mL, the MIC (ABA UFR151) was greater than 32 µg/mL and the MIC (ABA UFR156) was greater than 32 µg/mL. It also gave an MIC (ABA UFR159) greater than 32 µg/mL, an MIC (ABA UFR157) greater than 32 µg/mL and an MIC (ABA UFR158) greater than 32 µg/mL. It also gave an MIC (ABA UFR155) greater than 32 µg/mL, an MIC (ABA UFR160) greater than 32 µg/mL and an FIC index min (KPN UFR68; compound +ATM) of 0.05. The FIC index min (KPN UFR68; compound +FEP) was no more than 0.0098, the FIC index min (KPN UFR68; compound +FOS) was 0.25 and the FIC index min (KPN UFR68; compound +MEM) was 0.03. It also gave an FIC index min (KPN UFR68; compound +PIP) of 0.09, an FIC index min (ECL P99; compound +ATM) of 0.50 and an FIC index min (ECL P99; compound +FEP) of 0.14. For the same molecule, the FIC index min (ECL P99; compound +FOS) was no more than 0.14, the FIC index min (ECL P99; compound +MEM) was 0.50 and the FIC index min (ECL P99; compound +PIP) was 0.14. For the same molecule, the FIC index min (ECO 190317; compound +ATM) was 0.08, the FIC index min (ECO 190317; compound +FEP) was no more than 0.06 and the FIC index min (ECO 190317; compound +FOS) was 0.56. For the same molecule, the FIC index min (ECO 190317; compound +MEM) was 0.50, the FIC index min (ECO 190317; compound +PIP) was no more than 0.25 and the FIC index min (PAE UFR48; compound +ATM) was 0.09. It also gave an FIC index min (PAE UFR48; compound +FEP) of 0.63, an FIC index min (PAE UFR48; compound +FOS) of 0.50 and an FIC index min (PAE UFR48; compound +MEM) of 0.8. The FIC index min (PAE UFR48; compound +PIP) was 0.31, the FIC index min (PAE UFR90; compound +ATM) was no more than 0.22 and the FIC index min (PAE UFR90; compound +FEP) was no more than 0.28. For the same molecule, the FIC index min (PAE UFR90; compound +FOS) was no more than 0.63, the FIC index min (PAE UFR90; compound +MEM) was no more than 0.38 and the FIC index min (PAE UFR90; compound +PIP) was no more than 0.15.
